The record followed here is patent publication US6867179B1, “Methods of inducing hair growth and coloration” (Trustees of Boston University, priority 1994, dated 2005).

Format in all cases: cell-based, human
For one data set, the system named is MM4 cells. Put plainly: DNA fragmentation (DNA ladder) after UV irradiation, FIG. 3A. Conditions: 50 ng/ml NGF, 24 hours after UV irradiation. The method, then:
Cells in 100 mm tissue culture dishes were washed with cold PBS and disrupted in lysis buffer pH8 (10 mM tris, 150 mM NaCl, 0.1 mM EDTA, 1% SDS, 200 µg/ml proteinase K). After 15 hour incubation at […], samples were extracted twice with phenol plus chloroform (1:1, V/V) and precipitated overnight with ethanol (2.5×volume) and 3 M sodium acetate (1/10×volume). The DNA was then digested with DNAse free ribonuclease ([…]) for one hour at […], separated on 1% agarose gel and stained with ethidium bromide. The size marker is 100 bp DNA ladder (STD) (Gibco/BRL, Gaithersburg, Md.).
Melanocytes or MM4 cells were plated as described in Example 1. After irradiation, melanocytes were maintained in basal melanocyte medium lacking FBS and hydrocortisone, with 50 ng/ml NGF or diluent alone (melanocyte medium). MM4 cells were maintained in DME supplemented with 50 ng/ml NGF or diluent alone.
The standard (STD) is 100 bp DNA ladder (Gibco/BRL). (See FIG. 3A).

In the next data set the test system is BCL-2. The data set can be described thus: BCL-2 antisense oligonucleotides in UV-irradiated MM4 cells with or without NGF. The following applies: UV 10 mJ/cm^2, NGF 50 ng/ml, 48 hours. An excerpt:
Purified phosphorothioate oligonucleotides were purchased from Quality Controlled Biochemicals, Inc. (Hopkinton, Mass.). 19 mer oligonucleotides were designed based on the published human BCL-2 sequence (Tsujimoto, Y. and Croce, C. M., Proc. Natl. Acad. Sci. USA, 83:5214-5218 (1986)). The sequence chosen was directed against the […] of the coding region starting 4 bases before the methionine initiation site. Nonsense oligonucleotides were used as control. Sequences used (all written 5′ to 3′): Antisense CCCAGCGTGCGCCATCCTT (SEQ ID NO: 7); Nonsense CTCCCACTCGTCATTCGAC (SEQ ID NO: 8).
MM4 cells were maintained in 60 mm diameter tissue culture dishes in 55.3% DME, 27.6% L15, 15% FBS, 1% nonessential amino acids (GIBCO BRL), 2 mM glutamine and 10 µg/ml insulin. Near confluent cells were UV irradiated with 10 mJ/cm^2. Immediately after irradiation cells were incubated with 10 uM antisense or nonsense BCL-2 oligonucleotides in suspension at […] for 30 minutes. Then cells were plated in tissue culture dishes in the presence or absence of NGF (50 ng/ml). Cells were supplemented with fresh oligonucleotides every 12 hours. Cell yield and BCL-2 level were determined 48 hours after irradiation. Cell yield was determined by counting cells in at least three representative field per each condition.

Another data set deals with Bcl-2 protein. Put plainly: Keratinocyte BCL-2 level after NGF deprivation (Western blot). The following applies: medium lacking BPE, 50 ng/ml NGF versus diluent, 24 and 48 hours. As for the experimental part: To determine if NGF affects BCL-2 protein level in keratinocytes, cells were maintained in Keratinocyte basal medium until 60-80% confluent. Then cells were provided medium lacking BPE to eliminate exogenous NGF. Duplicate cultures were provided 50 ng/ml NGF or diluent alone.
Total keratinocyte proteins were extracted, and BCL-2 levels were determined by Western blot analysis as in Example 6.
(In western blotting, separated proteins are transferred to a membrane and probed.)

The test system of a further data set is melanocytes. The data set can be described thus: NGF protection of melanocytes from beta-amyloid-induced cell death. The method, then: Melanocytes were maintained as above in hormone supplemented medium lacking hydrocortisone. Cells were supplemented with 25 microM of beta-amyloid 1-40 in the presence of 50 ng/ml NGS or diluent.
Photographs of representative fields were obtained and the percent of the live cells (spread) was determined 48 hours after addition of beta-amyloid and NFG or beta-amyloid and diluent. In the presence of beta-amyloid and diluent 77±8.5% appeared spread as compared to 96±1.4% in cultures supplemenbetated in beta-amyloid and NGF.

Where [1] appears, read: NGF supplementation, preliminary data.

Entries after “also recorded” stand apart in the source; their conditions may differ.

On to “NGF: nerve growth factor, neurotrophin ligand of p75 NGF-R and trk”, for which the “DNA fragmentation after UV irradiation” value with MM4 cells is given as “not fragmented; also recorded: far less fragmentation”. Besides, the “Cell yields, NGF plus nonsense oligonucleotides versus diluent plus nonsense” value in the data set with BCL-2 was “significantly higher”. Further, the “BCL-2 level in keratinocytes” value in the data set with Bcl-2 protein is on record as “contributes, at least in part, to BCL-2 maintenance”. The “Percent of live cells (spread)” value with melanocytes (25 microM beta-amyloid 1-40 and 50 ng/ml NGF, 48 hours) is recorded as 96±1.4%. Moreover, the “Cell yields of beta-amyloid-supplemented melanocytes” value in the data set on melanocytes (NGF addition, within 3-5 days) is reported as “enhanced cell yields”. For the same substance, in the data set on melanocytes (setting [1]), the “Bcl-2 levels in beta-amyloid treated cells” value was “increases Bcl-2 levels” and the “Beta-amyloid-induced Bax upregulation” value is recorded as “decreases the beta-amyloid-induced Bax upregulation”. Further, the “Appearance of beta-amyloid exposed melanocytes” value in the data set on melanocytes (in the presence of NGF) is “appear healthy and spread on the dish surface”.
